The source of these data is PubChem BioAssay AID1259407 (Chemical Carcinogenesis Research Information System (CCRIS), 2018).

Molecules are shown by their SMILES. Calls of active or inactive are those of the source. No rule for the calls is given here.

The subject of this data set is CCRIS mutagenicity, Ames/micronucleus/aberration tests. As to the kind of experiment: CCRIS mutagenicity studies. The note with it: Test System: AMES SALMONELLA TYPHIMURIUM
Where [1] appears, read: Strain/Indicator: TA100, Metabolic Activation: NONE, Method: STANDARD PLATE.

For `O=[N+]([O-])C1=Cc2cccc3cccc(c23)O1`, the mutagenic call runs as follows: (Strain/Indicator: TA98, Metabolic Activation: NONE, Method: STANDARD PLATE) “inactive; negative”; (Strain/Indicator: TA98, Metabolic Activation: S-9, Method: STANDARD PLATE) “inactive; negative”; under setting [1], “active; positive”; (Strain/Indicator: TA100, Metabolic Activation: S-9, Method: STANDARD PLATE) “inactive; negative”.
`NC(=O)CC1CO1` (centres undefined): the mutagenic call is, setting by setting: (Strain/Indicator: TA100, Metabolic Activation: NONE, Method: PREINCUBATION) “active; positive”; under setting [1], “active; positive”; (Strain/Indicator: TA100, Metabolic Activation: RAT, LIVER, S-9, AROCLOR 1254, Method: PREINCUBATION) “active; positive”; (Strain/Indicator: TA100, Metabolic Activation: RAT, LIVER, S-9, AROCLOR 1254, Method: STANDARD PLATE) “active; positive”.
With `COc1ccc(CNC(=O)C(C)Br)cc1OC` (centres undefined), the mutagenic call under setting [1] is “active; positive”.
